Tests used:
Assay type in all cases: cell-based, human
polysomes = assay: Fractionation of polysomes on sucrose gradients; details: 15-45% sucrose gradient, Western blot; puromycin or ML-7 treatment
Procedure: ML-7, blebbistatin, cytochalasin B, puromycin, and cycloheximide were purchased from Sigma. ML-7 was used at 40 μM, blebbistatin was used at 100 μM, and cytochalasin B was used at 20 μM. Cells were incubated with the drugs for 16 h before analysis. Puromycin (200 μg/ml) and cycloheximide (100 μg/ml) were added to the cells for 2 h. Human lung fibroblasts have been described previously.16 Scleroderma fibroblasts were purchased from the European Collection of Cell Cultures (cell line BM0070) and derived from the skin of a scleroderma patient. MEFs were derived from knock-in mice in which the 5′SL of the collagen α1(I) gene has been mutated (Parsons et al., submitted). Several independent cell isolates were used throughout the study. All cells were cultured in Dulbecco's modified Eagle's medium supplemented with 10% fetal bovine serum for up to 10 passages. Plasmid constructs and adenovirus preparation. The HA-tagged LARP6 clone and the deletion mutants have been described previously.^16 Adenoviruses were constructed by recloning of the constructs into the pAdCMVTRACK vector, followed by recombination with the pAdEasy vector and amplification, as described previously.^48 Expression of each construct was verified by Western blot analysis. The viruses made express both the full-size test protein and the green fluorescent protein (GFP), which is encoded by an independent transcription unit.^48 Expression of GFP served as control for viral transduction. RT-PCR analysis Total cellular RNA was isolated using an RNA isolation kit (Sigma). RT-PCRs were performed with 100 ng of total RNA or using rTth reverse transcriptase (Boca Scientific, Boca Raton, Fla.). [^32P]dCTP was included in the PCR step to label the products, which were resolved on sequencing gels, as described previously.^8,31,49,50 When RNA from polysomal fractions was analyzed, an equal aliquot of each fraction was used. The number of cycles was adjusted to within the linear range of the reaction. The primers used for RT-PCR were as follows: h-collagen α1(I), 5′ primer […] (SEQ ID NO:3) and 3′ primer […] (SEQ ID NO:4); h-collagen α2(I), 5′ primer […] (SEQ ID NO:5) and 3′ primer […] (SEQ ID NO:6).
Polysomes were fractionated as described previously.^16 Sucrose fractions (0.5 ml) were collected, and total RNA was extracted by phenol/chloroform and isopropanol precipitation. Equivalent amounts of each fraction were analyzed by RT-PCR. Total proteins were extracted from sucrose fractions by trichloroacetic acid precipitation, and equivalent amounts were analyzed by Western blot analysis.
One of the roles of nonmuscle myosin filaments may be to present collagen mRNAs to ribosomes. Therefore, we assessed if the association of collagen mRNAs with nonmuscle myosin is dependent on intact polysomes. […] Only the anti-myosin antibody immunoprecipitated collagen α1(I) and α2(I) mRNAs (lane 1). We then immunoprecipitated nonmuscle myosin from lung fibroblasts treated with cycloheximide or puromycin and analyzed if this can change the pull-down of collagen mRNAs. As control, the association with vimentin was analyzed in the same samples (FIG. 9b). […] The association of collagen mRNAs with vimentin increased after the dissociation of polysomes (lanes 3 and 4). […] To assess if nonmuscle myosin copurifies with polysomes, we fractionated polysomes on sucrose gradients^16 and analyzed for the presence of nonmuscle myosin in the fractions using Western blot analysis (FIG. 9f). […]

[1] = test system: LARP6 and nonmuscle myosin; assay: Coimmunoprecipitation of nonmuscle myosin IIB with HA-tagged LARP6; details: lung fibroblasts; puromycin 200 μg/ml 2 h vs cycloheximide
Procedure: (§1) ML-7, blebbistatin, cytochalasin B, puromycin, and cycloheximide were purchased from Sigma. ML-7 was used at 40 μM, blebbistatin was used at 100 μM, and cytochalasin B was used at 20 μM. Cells were incubated with the drugs for 16 h before analysis. Puromycin (200 μg/ml) and cycloheximide (100 μg/ml) were added to the cells for 2 h. Human lung fibroblasts have been described previously.16 Scleroderma fibroblasts were purchased from the European Collection of Cell Cultures (cell line BM0070) and derived from the skin of a scleroderma patient. MEFs were derived from knock-in mice in which the 5′SL of the collagen α1(I) gene has been mutated (Parsons et al., submitted). Several independent cell isolates were used throughout the study. All cells were cultured in Dulbecco's modified Eagle's medium supplemented with 10% fetal bovine serum for up to 10 passages. Plasmid constructs and adenovirus preparation. […] [^32P]dCTP was included in the PCR step to label the products, which were resolved on sequencing gels, as described previously.^8,31,49,50 When RNA from polysomal fractions was analyzed, an equal aliquot of each fraction was used. […]
One of the roles of nonmuscle myosin filaments may be to present collagen mRNAs to ribosomes. Therefore, we assessed if the association of collagen mRNAs with nonmuscle myosin is dependent on intact polysomes. […]

myosin IIB = assay: Western blot analysis of total nonmuscle myosin IIB level; details: lung fibroblasts; puromycin 200 μg/ml 2 h vs cycloheximide-treated cells
Procedure: as §1, with “passages.” for “passages. Plasmid constructs and adenovirus preparation.”
Protein concentration was estimated by the Bradford assay, with bovine serum albumin as standard.^51 Western blot analyses of cellular proteins were performed using 50 μg of protein. […] The medium was collected, and an aliquot was analyzed directly by Western blot analysis. […]

LARP6 and vimentin = assay: Coimmunoprecipitation of vimentin with HA-tagged LARP6; details: lung fibroblasts; puromycin 200 μg/ml 2 h vs cycloheximide
Procedure: as §1, with “submitted).” for “submitted). Several independent cell isolates were used throughout the study. All cells were cultured in Dulbecco's modified Eagle's medium supplemented with 10% fetal bovine serum for up to 10 passages. Plasmid constructs and adenovirus preparation.”
(§2) One of the roles of nonmuscle myosin filaments may be to present collagen mRNAs to ribosomes. Therefore, we assessed if the association of collagen mRNAs with nonmuscle myosin is dependent on intact polysomes. […] We then immunoprecipitated nonmuscle myosin from lung fibroblasts treated with cycloheximide or puromycin and analyzed if this can change the pull-down of collagen mRNAs. As control, the association with vimentin was analyzed in the same samples (FIG. 9b). […]

nonmuscle myosin IIB = assay: Immunoprecipitation of nonmuscle myosin IIB and RT-PCR of collagen mRNAs; details: lung fibroblasts; cycloheximide 100 μg/ml or puromycin 200 μg/ml, 2 h
Procedure: as §1, with “submitted).” for “submitted). Several independent cell isolates were used throughout the study. All cells were cultured in Dulbecco's modified Eagle's medium supplemented with 10% fetal bovine serum for up to 10 passages. Plasmid constructs and adenovirus preparation.”
as §2

vimentin = assay: Immunoprecipitation of vimentin and RT-PCR of collagen mRNAs; details: lung fibroblasts; puromycin (dissociation of polysomes) vs cycloheximide
Procedure: as §1, with “submitted).” for “submitted). Several independent cell isolates were used throughout the study. All cells were cultured in Dulbecco's modified Eagle's medium supplemented with 10% fetal bovine serum for up to 10 passages. Plasmid constructs and adenovirus preparation.”
as §2

## COc1ccc(C[C@H](N)C(=O)N[C@H]2[C@@H](O)[C@H](n3cnc4c(N(C)C)ncnc43)O[C@@H]2CO)cc1 [puromycin]
polysomes
  nonmuscle myosin in polysomal fractions: some nonmuscle myosin was lost, mostly from fractions 1-10
[1]
  interaction of LARP6 and nonmuscle myosin: decreased
Myosin IIB
  total level of nonmuscle myosin: did not change
LARP6 and vimentin
  interaction of LARP6 with vimentin: increased
Nonmuscle myosin IIB
  collagen α1(I) and α2(I) mRNAs pulled down with nonmuscle myosin IIB: the great majority of these mRNAs were absent
vimentin
  association of collagen mRNAs with vimentin: increased

Reference: patent US8697385B1, “Protein controlling synthesis of collagen and associated methods” (Florida State University Research Foundation, Inc., priority 2009, dated 2014)
